Several values for one entry are separate records, joined by “and”; a condition that tells them apart may be missing. Equal entries are not always repeated. Where only a bound is given, the exact number is not on record here.

In general, IC50 refers to the concentration at which inhibition is half-maximal. Low values mean higher potency, high ones lower potency.

Assay [1] addresses T1, Genome polyprotein (dengue virus type 2, UniProt P29990). Format: functional, Thailand/16681/1984.
For assay [2], the target named is T1, Genome polyprotein. Type of assay: functional, Thailand/16681/1984. The source holds these as a separate data set.

T1 sequence (P29990 1346-1475 limits assumed): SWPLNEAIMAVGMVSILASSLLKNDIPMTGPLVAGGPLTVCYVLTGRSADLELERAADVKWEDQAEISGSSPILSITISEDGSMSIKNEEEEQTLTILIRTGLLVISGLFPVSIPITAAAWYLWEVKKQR
T1 sequence (P29990 1476-2093 limits assumed): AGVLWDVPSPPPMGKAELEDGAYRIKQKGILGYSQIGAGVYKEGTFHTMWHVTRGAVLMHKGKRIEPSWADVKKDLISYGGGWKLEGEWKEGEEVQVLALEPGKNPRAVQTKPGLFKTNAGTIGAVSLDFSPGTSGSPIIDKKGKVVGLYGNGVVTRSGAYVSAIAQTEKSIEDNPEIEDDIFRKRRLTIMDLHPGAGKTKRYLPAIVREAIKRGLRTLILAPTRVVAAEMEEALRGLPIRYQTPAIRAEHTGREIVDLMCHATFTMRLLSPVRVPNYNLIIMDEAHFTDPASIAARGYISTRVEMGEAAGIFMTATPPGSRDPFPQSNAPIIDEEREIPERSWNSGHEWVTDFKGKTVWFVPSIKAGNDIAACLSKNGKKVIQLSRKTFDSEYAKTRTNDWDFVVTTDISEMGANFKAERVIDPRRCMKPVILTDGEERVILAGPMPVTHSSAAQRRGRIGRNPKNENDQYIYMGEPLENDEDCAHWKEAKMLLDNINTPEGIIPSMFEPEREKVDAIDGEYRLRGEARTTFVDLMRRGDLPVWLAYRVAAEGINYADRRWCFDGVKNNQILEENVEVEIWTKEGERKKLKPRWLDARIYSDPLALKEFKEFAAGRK

On to `NCc1cccc(N[C@H](C#CCO)c2cc(Cl)cc(NC(=O)OCc3ccccc3)c2)c1`, for which the figures for the IC50 against Genome polyprotein [1] and against Genome polyprotein [2] were 93.8 µM and > 100 µM, respectively.

Regarding `COc1c(C(=O)N(C)C)cc(Cl)cc1S(=O)(=O)Nc1cccc(-c2nnn[nH]2)c1`, the IC50 against Genome polyprotein [1] is > 99.5 µM; on Genome polyprotein [2], > 100 µM.

As for `NCc1ccc2c(c1)[C@H]1OCCC[C@H]1[C@H](c1cc(Cl)cc(NC(=O)OCc3ccccc3)c1)N2`, the half-inhibitory concentration (IC50) on Genome polyprotein [1] is 17.6 µM and 15.9 µM; on Genome polyprotein [2] it was 33.9 µM and 45.8 µM.

`CC[C@H](Cc1nnn[nH]1)c1ccc(NC(=O)c2cc(Cl)cc(-n3cccc3)c2)cc1`: the concentration for half-maximal inhibition (IC50) against Genome polyprotein [1] is 26.4 µM; against Genome polyprotein [2], 14.7 µM and 20.9 µM.

Consider `O=S(=O)(Nc1cccc(-c2nnn[nH]2)c1)c1cc(Cl)cc(-c2ccccc2)c1`, for which the 50% inhibitory concentration (IC50) is 35.8 µM against Genome polyprotein [1]; 16.4 µM and 28.4 µM against Genome polyprotein [2].

On to `Nc1cccc(NC(=O)c2cc(Cl)cc(NC(=O)OCc3ccccc3)c2)c1`, for which the IC50 against Genome polyprotein [1] is > 99.5 µM; on Genome polyprotein [2], > 100 µM.

Turning to `COC(=O)c1cc(Cl)cc([C@@H]2CN(Cc3ccccc3)C[C@H]2c2cccc(CN)c2)c1`, the half-maximal inhibitory concentration (IC50) at Genome polyprotein [1] was > 99.5 µM; at Genome polyprotein [2], > 100 µM.

For `O=S(=O)(Nc1cccc(-c2nnn[nH]2)c1)c1cc(Cl)cc2c1OCC2`, the half-inhibitory concentration (IC50) on Genome polyprotein [1] is > 99.5 µM; on Genome polyprotein [2], > 100 µM.

Consider `Cc1onc(C(=O)Nc2cccc(CN)c2)c1CN1CCCC1`, for which the IC50 is > 99.5 µM at Genome polyprotein [1] and > 100 µM against Genome polyprotein [2].

Consider `O=S(=O)(Nc1cccc(-c2nnn[nH]2)c1)c1cc(Cl)cc(C(F)(F)F)c1`, for which the concentration for half-maximal inhibition (IC50) on Genome polyprotein [1] is > 99.5 µM; at Genome polyprotein [2], > 100 µM.

For `CCNC(=O)Nc1cc(Cl)cc(C(=O)Nc2ccc3c(c2)CNCCO3)c1`, the 50% inhibitory concentration (IC50) is > 99.5 µM against Genome polyprotein [1] and > 100 µM on Genome polyprotein [2].

Consider `CC[C@H](Cc1nn[nH]n1)c1ccc(N[C@H](C(=O)NC)c2cc(Cl)cc(NC(=O)OCc3ccccc3)c2)cc1`, for which the IC50 at Genome polyprotein [1] is 29.2 µM; against Genome polyprotein [2], 15.4 µM and 25.1 µM.

As to `O=C(Nc1cc(Cl)cc(C(=O)NC2(c3nn[nH]n3)CCCC2)c1)OCc1ccccc1`, the IC50 is > 99.5 µM at Genome polyprotein [1] and > 100 µM against Genome polyprotein [2].

Regarding `O=C(Nc1cc(Cl)cc([C@H]2C[C@@H]2c2ccc3c(c2)CNC3)c1)OCc1ccccc1`, the concentration for half-maximal inhibition (IC50) against Genome polyprotein [1] is > 99.5 µM; against Genome polyprotein [2], > 100 µM.

Consider `CC[C@H](Cc1nnn[nH]1)c1ccc(NC(=O)[C@H]2[C@H]3CCCCC[C@H]3[C@H]2NC(=O)OCc2ccccc2)cc1`, for which the IC50 was 22.9 µM at Genome polyprotein [1]; 13 µM and 16.4 µM against Genome polyprotein [2].

For the compound `CCNC(=O)Nc1cc(Cl)cc(C(=O)Nc2cc(CCCN)ccc2F)c1`, the half-inhibitory concentration (IC50) on Genome polyprotein [1] was > 99.5 µM; against Genome polyprotein [2], > 100 µM.

For `CCc1cc(C(=O)Nc2cccc(-n3nn[nH]c3=O)c2)sc1-c1ccc(Cl)cc1`, the 50% inhibitory concentration (IC50) against Genome polyprotein [1] was 11.3 µM and 12.9 µM; against Genome polyprotein [2], 10.5 µM and 12.2 µM.

As to `COC(=O)c1cc(CN)cc([C@@H]2C[C@H]2c2cc(Cl)cc(NC(=O)OCc3ccccc3)c2)c1`, the IC50 was > 99.5 µM against Genome polyprotein [1] and > 100 µM at Genome polyprotein [2].

Take `Cc1ccc(-c2nnn[nH]2)cc1NC(=O)c1cc(Cl)cc(NC(=O)OCc2ccccc2)c1`: the IC50 against Genome polyprotein [1] was 18.4 µM; against Genome polyprotein [2], 9.21 µM and 13.1 µM.

As to `CCNC(=O)Nc1cc(Cl)cc(C(=O)Nc2cccc(-n3nn[nH]c3=O)c2)c1`, the half-inhibitory concentration (IC50) against Genome polyprotein [1] was > 99.5 µM; against Genome polyprotein [2], > 100 µM.

In the case of `O=C(Nc1cc(Cl)cc(/C=C/c2cccc(-n3nn[nH]c3=O)c2)c1)OCc1ccccc1`, the IC50 was 8.63 µM and 8.5 µM on Genome polyprotein [1]; 11.5 µM and 8.65 µM against Genome polyprotein [2].

For the compound `O=C(Nc1cc(Cl)cc(S(=O)(=O)Nc2cccc(-n3nn[nH]c3=O)c2)c1)OCc1ccccc1`, the IC50 was 34.3 µM against Genome polyprotein [1]; 16.1 µM and 14.1 µM against Genome polyprotein [2].

Take `N#C[C@H](Nc1cccc(C(=O)O)c1)c1cc(Cl)cc2[nH]ncc12`: the results for the IC50 on Genome polyprotein [1] and against Genome polyprotein [2] were > 99.5 µM and > 100 µM, respectively.

For `O=C(Nc1cc(Cl)cc(C(=O)Nc2ccc3c(c2)C(=O)NC3)c1)OCc1ccccc1`, the IC50 was > 99.5 µM against Genome polyprotein [1] and > 100 µM against Genome polyprotein [2].

Consider `N[C@H]1CCc2cc(NC(=O)c3cc(Cl)cc(NC(=O)OCc4ccccc4)c3)ccc21`, for which the IC50 is 44.7 µM at Genome polyprotein [1] and > 100 µM against Genome polyprotein [2].

The values above are taken from ChEMBL document CHEMBL5604063, “ASAP - DENV-2 NS2B-NS3 protease fluorescence dose response” (2024).
